Data published in patent publication US6620841B1, “Aromatic heterocycle compounds having HIV integrase inhibiting activities” (Shionogi & Co., Ltd., priority 1998, dated 2003).
Counter-ions that a name gives are not always drawn.

Experiments:
HIV-1 integrase = HIV-1 integrase (Human immunodeficiency virus type 1 group M subtype B, UniProt P12497); assay: HIV-1 integrase inhibition assay (microtiter plate, substrate/target DNA, OD 405 nm)
Description: (2) Calculations of the Percent Inhibitions (the IC50 Values of Test Compounds)
Streptavidin, obtained from Vector Laboratories, was dissolved in 0.1 M carbonate buffer (composition: 90 mM Na2CO3, 10 mM NaHCO3) at concentration of 40 μg/ml. After coating each well of microtiter plates (obtained from NUNC) with 50 μl of the above solution at 4° C. over night, each well was washed twice with PBS (composition: 13.7 mM NaCl, 0.27 mM KCl, 0.43 mM Na2HPO4, 0.14 mM KH2PO4) and blocked with 300 μl of 1% skim milk in PBS for 30 min. Additionally, each well was washed twice with PBS and added 50 μl of substrate DNA solution (2 pmol/μl). The microtiter plates were kept at room temperature for 30 min. Then, each well was washed twice with PBS and once with H2O.
Subsequently, in the each well prepared above were added 45 μl of the reaction buffer prepared from 12 μl of the buffer (composition: 150 mM MOPS (pH 7.2), 75 mM MnCl2, 50 mM 2-mercaptoethanol, 25% glycerol, 500 μg/ml bovine serum albumin-fraction V), 1 μl of target DNA (5 pmol/μl), and 32 μl of the distilled water. Additionally, 6 μl of either a test compound in DMSO or DMSO for positive control(PC) was mixed with the above reaction buffer, then 9 μl of an integrase solution (30 pmol) was added and mixed well. In the well of negative control (NC) was added 9 μl of the integrase dilution buffer (composition: 20 mM MOPS (pH7.2), 400 mM potassium glutamate, 1 mM EDTA, 0.1% NP-40, 20% glycerol, 1 mM DTT, 4M urea).
The microtiter plates were incubated at 30° C. for 1 hour. The reaction solution was removed and each well was washed twice with PBS. Subsequently, each well of the microtiter plates was filled with 100 μl of anti-digoxigenin antibody labeled with alkaline phosphatase (Sheep Fab fragment: obtained from Boehringer) and incubated at 30° C. for 1 hour. Then, each well was washed twice with 0.05% Tween20 in PBS and once with PBS. Next, 150 μl of the Alkaline phosphatase reaction buffer (composition: 10 mM p-Nitrophenylphosphate (obtained from Vector Laboratories), 5 mM MgCl2, 100 mM NaCl, 100 mM Tris-HCl (pH 9.5))was added in each well. […] The optical density (OD) at 405 nm of each well was measured and the percent inhibition was determined by the following expression.
The percent inhibition (%)=100[1-{(C abs.−NC abs.)/(PC abs.−NC abs.)}]
C abs.; the OD of the well of the compounds
NC abs.: the OD of the negative control (NC)
PC abs.: the OD of the positive control (PC)
IC50(μg/ml)=x−{(X−50)(x−y)/(X−Y)}

Row | SMILES | melting point | IC50 (HIV-1 integrase) [µM]
1 | Cc1cc(Cc2ccc(F)cc2)oc1C(=O)C=C(O)c1nc[nH]n1 [I-61, 1-[[5-(4-Fluorobenzyl)-3-methyl]furan-2-yl]-3-hydroxy-3-(1H-1,2,4-triazol-3-yl)-propenone] | 191 to 192 °C | 2.08
2 | O=C(C=C(O)c1nc[nH]n1)c1ccc(Cc2ccccc2Cl)o1 [I-80, 1-[5-(2-Chlorobenzyl)furan-2-yl]-3-hydroxy-3-(1H-1,2,4-triazol-3-yl)-propenone] | 169 to 171 °C | 1.61
3 | NC(=O)C(O)=CC(=O)c1ccc(Cc2ccc(F)cc2)o1 [I-134, 4-[5-(4-Fluorobenzyl)furan-2-yl]-2-hydroxy-4-oxo-2-butenoic acid amide] | 113 to 115 °C | 
4 | O=C(C=C(O)c1ccccn1)c1ccc(Cc2ccc(F)cc2)o1 [I-106, 1-[5-(4-Fluorobenzyl)furan-2-yl]-3-hydroxy-3-(pyridin-2-yl)-propenone] | 84 to 85 °C | 
5 | Cn1ccnc1C(O)=CC(=O)c1ccc(Cc2ccc(F)cc2)o1 [I-100, 1-[5-(4-Fluorobenzyl)furan-2-yl]-3-hydroxy-3-(1-methyl-1H-imidazol-2-yl)-propenone] | 56 to 57 °C | 4.9
6 | O=C(Nc1ccccn1)C(O)=CC(=O)c1ccc(Cc2ccc(F)cc2)o1 [I-135, 4-[5-(4-Fluorobenzyl)furan-2-yl]-2-hydroxy-4-oxo-2-butenoic acid pyridin-2-yl amide] | > 250 °C | 
7 | CCc1nc(C(O)=CC(=O)c2ccc(Cc3ccc(F)cc3)o2)n[nH]1 [I-98, 3-(5-Ethyl-1H-1,2,4-triazol-3-yl)-1-[5-(4-fluorobenzyl)furan-2-yl]-3-hydroxy-propenone] | 204 to 205 °C | 1.35
8 | O=C(O)C(O)=CC(=O)c1ccn(S(=O)(=O)c2ccccc2)c1 [I-23, 4-(1-Benzenesulfonylpyrrol-3-yl)-2-hydroxy-4-oxo-2-butenoic acid] | 186 to 188 °C | 
9 | O=C(C=C(O)c1ncccn1)c1cnc(Cc2ccc(F)cc2)o1 [I-152, 1-[2-(4-Fluorobenzyl)oxazolyl-5-yl]-3-hydroxy-3-(pyrimidin-2-yl)-propenone] | 97 to 100 °C | 
10 | O=C(C=C(O)c1nn[nH]n1)c1occc1Cc1ccc(F)cc1 [I-46, 1-[3-(4-Fluorobenzyl)furan-2-yl]-3-hydroxy-3-(2H-tetrazol-5-yl)-propenone] | 171 to 174 °C | 
11 | O=C(O)C(O)=CC(=O)c1cc[nH]c1 [I-22, 2-Hydroxy-4-oxo-4-(pyrrol-3-yl)-2-butenoic acid] | 185 to 192 °C | 
12 | O=C(C=C(O)c1nn[nH]n1)c1ccoc1Cc1ccc(F)cc1 [I-52, 1-[2-(4-Fluorobenzyl)furan-3-yl]-3-hydroxy-3-(2H-tetrazol-5-yl)-propenone] | 150 to 153 °C | 
13 | CC(C)c1nc(C(O)=CC(=O)c2ccc(Cc3ccc(F)cc3)o2)n[nH]1 [I-99, 1-[5-(4-Fluorobenzyl)furan-2-yl]-3-hydroxy-3-(5-isopropyl-1H-1,2,4-triazol-3-yl)-propenone] | 146 to 147 °C | 1.86
14 | O=C(C=C(O)c1nc[nH]n1)c1ccc(Sc2ccc(F)cc2F)o1 [I-70, 1-[5-(2,4-Difluorophenylthio)furan-2-yl]-3-hydroxy-3-(1H-1,2,4-triazol-3-yl)-propenone] | 158 to 160 °C | 1.2
15 | O=C(C=C(O)c1nn[nH]n1)c1ccc(Cc2ccc(F)cc2)o1 [I-55, 1-[5-(4-Fluorobenzyl)furan-2-yl]-3-hydroxy-3-(2H-tetrazol-5-yl)-propenone] | 121 to 123 °C | 
16 | O=C(C=C(O)c1ncc[nH]1)c1ccc(Cc2ccc(F)cc2)o1 [I-101, 1-[5-(4-Fluorobenzyl)furan-2-yl]-3-hydroxy-3-(1H-imidazol-2-yl)-propenone hydrochloride] |  | 1.7
17 | O=C(C=C(O)c1nccs1)c1ccc(Cc2ccc(F)cc2)o1 [I-104, 1-[5-(4-Fluorobenzyl)furan-2-yl]-3-hydroxy-3-(thiazol-2-yl)-propenone] |  | 1.76
18 | O=C(C=C(O)c1ncc[nH]1)c1ccc(Cc2ccc(F)cc2)o1 (as salt: hydrochloride) [I-101, 1-[5-(4-Fluorobenzyl)furan-2-yl]-3-hydroxy-3-(1H-imidazol-2-yl)-propenone hydrochloride] | 186 to 191 °C | 
19 | O=C(Nc1ccccc1)C(O)=CC(=O)c1ccc(Cc2ccc(F)cc2)o1 [I-137, 4-[5-(4-Fluorobenzyl)furan-2-yl]-2-hydroxy-4-oxo-2-butenoic acid phenyl amide] | 132 to 134 °C | 
20 | O=C(C=C(O)c1nc[nH]n1)c1ccc(Sc2ccc(F)cc2)o1 [I-68, 1-[5-(4-Fluorophenylthio)furan-2-yl]-3-hydroxy-3-(1H-1,2,4-triazol-3-yl)-propenone] |  | 0.996
21 | O=C(Nc1nc[nH]n1)C(O)=CC(=O)c1ccc(Cc2ccc(F)cc2)o1 [I-138, 4-[5-(4-Fluorobenzyl)furan-2-yl]-2-hydroxy-4-oxo-2-butenoic acid (1H-1,2,4-triazol-3-yl)amide] | 250 °C (dec.) | 
22 | O=C(C=C(O)c1nc[nH]n1)c1occc1Cc1ccc(F)cc1 [I-45, 1-[3-(4-Fluorobenzyl)furan-2yl]-3-hydroxy-3-(1H-1,2,4-triazol-3-yl)-propenone] | 221 to 223 °C | 
23 | O=C(Nc1nncs1)C(O)=CC(=O)c1ccc(Cc2ccc(F)cc2)o1 [I-139, 4-[5-(4-Fluorobenzyl)furan-2-yl]-2-hydroxy-4-oxo-2-butenoic acid ([1,3,4]thiadiazol-2-yl)amide] | 199 to 201 °C (dec.) | 
24 | O=C(Nc1nccs1)C(O)=CC(=O)c1ccc(Cc2ccc(F)cc2)o1 [I-136, 4-[5-(4-Fluorobenzyl)furan-2-yl]-2-hydroxy-4-oxo-2-butenoic acid thiazol-2-yl amide] | 198 °C (dec.) | 
25 | O=C(C=C(O)c1nn[nH]n1)c1cn(S(=O)(=O)c2ccccc2)cc1CCc1ccccc1 [I-31, 1-[[1-Benzenesulfonyl-4-(2-phenylethyl)]pyrrol-3-yl]-3-hydroxy-3-(2H-tetrazol-5-yl)-propenone] | 178 to 181 °C | 
26 | O=C(C=C(O)c1ccccn1)c1cnc(Cc2ccc(F)cc2)o1 [I-151, 1-[2-(4-Fluorobenzyl)oxazolyl-5-yl]-3-hydroxy-3-(pyridin-2-yl)-propenone] | 108 to 109 °C | 
27 | O=C(C=C(O)c1nc[nH]n1)c1c[nH]cc1Cc1ccc(F)cc1 [I-14, 1-[4-(4-Fluorobenzyl)pyrrol-3-yl]-3-hydroxy-3-(1H-1,2,4-triazol-3-yl)-propenone] | 210 to 213 °C | 
28 | O=C(C=C(O)c1nc[nH]n1)c1ccoc1Cc1ccc(F)cc1 [I-49, 1-[2-(4-Fluorobenzyl)furan-3-yl]-3-hydroxy-3-(1H-1,2,4-triazol-3-yl)-propenone] | 170 to 177 °C | 
29 | O=C(C=C(O)c1nn[nH]n1)c1c[nH]cc1CCc1ccccc1 [I-25, 3-Hydroxy-1-[(4-(2-phenylethyl))pyrrol-3-yl]-3-(2H-tetrazol-5-yl)-propenone] | 228 to 230 °C | 
30 | CCCn1cc(Cc2ccc(F)cc2)c(C(=O)C=C(O)c2nc[nH]n2)c1 [I-35, 1-[[4-(4-Fluorobenzyl)-1-n-propyl]pyrrol-3-yl]-3-hydroxy-3-(1H-1,2,4-triazol-3-yl)-propenone] | 210 to 211 °C | 
